Laboratory results from US20020051978A1, “Methods and compositions for the identification, assessment, prevention and therapy of human cancers” (priority 2000, published 2002).
Where two headings read alike, the source gives them in different places.

Experiments:
[1] = system: 60 cancer cell lines (NCI 60 cancer cell line series); assay: NCI-DTP in vitro cancer screen, sulforhodamine B (SRB) growth inhibition, 48 hour exposure; format: cell-based, human; parameters: key to sensitivity class Ovarian OVCAR-8 CL6005 / sensitivity class Ovarian SK-OV-3 CL6011 / sensitivity class Prostate DU-145 CL11003 / sensitivity class NSCLC NCI-H522 CL1003 / sensitivity class Ovarian IGROV1 CL6010 / sensitivity class Ovarian OVCAR-4 CL6002 / sensitivity class Prostate PC-3(I) CL11001 / sensitivity class Renal A498 CL9013 / sensitivity class Renal SN12C CL9008: sensitivity class: 1 = Low, 2 = Medium, 3 = High
Method in brief: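 Values come from the NCI-DTP screen database: -log GI50, the concentration giving 50% growth inhibition, derived from SRB cell-mass dose-response curves. Each line seeded at its own density, treated day 1 at five ten-fold-spaced doses in duplicate wells, stained after 48 h.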

[2] = system: 60 cancer cell lines (NCI 60 cancer cell line series); settings: cited from earlier work

## COc1cccc2c1C(=O)c1c(O)c3c(c(O)c1C2=O)C[C@@](O)(C(=O)CO)C[C@@H]3O[C@H]1C[C@H](N)[C@H](O)[C@H](C)O1 [Adriamycin]
[1]; CNS SF-539 CL12016
  classification of cell line as Low(1), Medium(2) or High(3) sensitivity to compound: 2
[1]; CNS SNB-19 (CL12002)
  classification of cell line as Low(1), Medium(2) or High(3) sensitivity to compound: 2
[1]; CNS SNB-75(I) CL12005
  classification of cell line as Low(1), Medium(2) or High(3) sensitivity to compound: 2
[1]; CNS U251(I) CL12009
  classification of cell line as Low(1), Medium(2) or High(3) sensitivity to compound: 2
[1]; Colon COLO-250 CL4010
  classification of cell line as Low(1), Medium(2) or High(3) sensitivity to compound: 2
[1]; Colon HCC-2998 (CL4002)
  classification of cell line as Low(1), Medium(2) or High(3) sensitivity to compound: 2
[1]; Colon HCT-15 CL4015
  classification of cell line as Low(1), Medium(2) or High(3) sensitivity to compound: 1
[1]; Colon HCT-116 (CL4003)
  classification of cell line as Low(1), Medium(2) or High(3) sensitivity to compound: 2
[1]; Colon HT29(I) CL4001
  classification of cell line as Low(1), Medium(2) or High(3) sensitivity to compound: 2
[1]; Colon KM12 (CL4017)
  classification of cell line as Low(1), Medium(2) or High(3) sensitivity to compound: 2
[1]; Colon SW-620 (CL4009)
  classification of cell line as Low(1), Medium(2) or High(3) sensitivity to compound: 2
[1]; Leukemia CCRF-CEM(I) (CL7003)
  classification of cell line as Low(1), Medium(2) or High(3) sensitivity to compound: 3
[1]; Leukemia HL-60(I) (CL7008)
  classification of cell line as Low(1), Medium(2) or High(3) sensitivity to compound: 2
[1]; Leukemia K562(I) CL7005
  classification of cell line as Low(1), Medium(2) or High(3) sensitivity to compound: 2
[1]; Leukemia MOLT-4 (CL7006)
  classification of cell line as Low(1), Medium(2) or High(3) sensitivity to compound: 3
[1]; Leukemia RPMI-8226(I) (CL7010)
  classification of cell line as Low(1), Medium(2) or High(3) sensitivity to compound: 2
[1]; Leukemia SR CL7019
  classification of cell line as Low(1), Medium(2) or High(3) sensitivity to compound: 3
[1]; Melanoma LOX IMVI CL10001
  classification of cell line as Low(1), Medium(2) or High(3) sensitivity to compound: 2
[1]; Melanoma M14 (CL10014)
  classification of cell line as Low(1), Medium(2) or High(3) sensitivity to compound: 2
[1]; Melanoma MALME-3M CL10002
  classification of cell line as Low(1), Medium(2) or High(3) sensitivity to compound: 2
[1]; cell line NSCLC NCI-H23(I), CL1001
  sensitivity class NSCLC NCI-H23(I) CL1001: 2
[1]; cell line NSCLC NCI-H332M, CL1017
  sensitivity class NSCLC NCI-H332M CL1017: 1
[1]; cell line NSCLC NCI-H460, CL1021
  sensitivity class NSCLC NCI-H460 CL1021: 3
[1]; cell line NSCLC NCI-H522, CL1003
  sensitivity class NSCLC NCI-H522 CL1003: 2
[1]; cell line Ovarian IGROV1, CL6010
  sensitivity class Ovarian IGROV1 CL6010: 2
[1]; cell line Ovarian OVCAR-3, CL6001
  sensitivity class Ovarian OVCAR-3 CL6001: 2
[1]; cell line Ovarian OVCAR-4, CL6002
  sensitivity class Ovarian OVCAR-4 CL6002: 1
[1]; cell line Ovarian OVCAR-5, CL6003
  sensitivity class Ovarian OVCAR-5 CL6003: 1
[1]; cell line Ovarian OVCAR-8, CL6005
  sensitivity class Ovarian OVCAR-8 CL6005: 2
[1]; cell line Ovarian SK-OV-3, CL6011
  sensitivity class Ovarian SK-OV-3 CL6011: 2
[1]; cell line Prostate DU-145, CL11003
  sensitivity class Prostate DU-145 CL11003: 2
[1]; cell line Prostate PC-3(I), CL11001
  sensitivity class Prostate PC-3(I) CL11001: 2
[1]; cell line Renal 786-O, CL9018
  sensitivity class Renal 786-O CL9018: 2
[1]; cell line Renal A498, CL9013
  sensitivity class Renal A498 CL9013: 2
[1]; cell line Renal ACHN, CL9023
  sensitivity class Renal ACHN CL9023: 2
[1]; cell line Renal CAKI-1, CL9015
  sensitivity class Renal CAKI-1 CL9015: 2
[1]; cell line Renal RXF-393, CL9016
  sensitivity class Renal RXF-393 CL9016: 2
[1]; cell line Renal SN12C, CL9008
  sensitivity class Renal SN12C CL9008: 2
[1]; cell line Renal TK10, CL9024
  sensitivity class Renal TK10 CL9024: 2
[1]; cell line Renal UO-31, CL9004
  sensitivity class Renal UO-31 CL9004: 1
[2]; Breast BT-549 (CL5013)
  -Log (GI50): 6.5
[2]; Breast HS-578T CL5006
  -Log (GI50): 6.7
[2]; Breast MCF7(I) (CL5001)
  -Log (GI50): 7.8
[2]; Breast MCF7/ADRr (CL5002)
  -Log (GI50): 4.8
[2]; Breast MDA-MB-231 CL5005
  -Log (GI50): 6.4
[2]; Breast MDA-MB-435 (CL5011)
  -Log (GI50): 6.5
[2]; Breast MDA-N CL5012
  -Log (GI50): 6.5
[2]; Breast T-47D (CL5014)
  -Log (GI50): 7.0
[2]; CNS SF-268 CL12014
  -Log (GI50): 7.0
[2]; CNS SF-295 CL12015
  -Log (GI50): 7.0
[2]; CNS SF-539 CL12016
  -Log (GI50): 7.2
[2]; CNS SNB-19 (CL12002)
  -Log (GI50): 7.3
[2]; CNS SNB-75(I) CL12005
  -Log (GI50): 7.0
[2]; CNS U251(I) CL12009
  -Log (GI50): 7.3
[2]; Colon COLO-250 CL4010
  -Log (GI50): 6.7
[2]; Colon HCC-2998 (CL4002)
  -Log (GI50): 6.7
[2]; Colon HCT-15 CL4015
  -Log (GI50): 5.9
[2]; Colon HCT-116 (CL4003)
  -Log (GI50): 7.1
[2]; Colon HT29(I) CL4001
  -Log (GI50): 6.7
[2]; Colon KM12 (CL4017)
  -Log (GI50): 6.5
[2]; Colon SW-620 (CL4009)
  -Log (GI50): 7.1
[2]; Leukemia CCRF-CEM(I) (CL7003)
  -Log (GI50): 7.5
[2]; Leukemia HL-60(I) (CL7008)
  -Log (GI50): 7.3
[2]; Leukemia K562(I) CL7005
  -Log (GI50): 7.0
[2]; Leukemia MOLT-4 (CL7006)
  -Log (GI50): 8.0
[2]; Leukemia RPMI-8226(I) (CL7010)
  -Log (GI50): 7.3
[2]; Leukemia SR CL7019
  -Log (GI50): 7.8
[2]; Melanoma LOX IMVI CL10001
  -Log (GI50): 7.3
[2]; Melanoma M14 (CL10014)
  -Log (GI50): 6.6
[2]; Melanoma MALME-3M CL10002
  -Log (GI50): 7.1
[2]; NCSLC NCI-H522 CL1003
  -Log (GI50): 7.2
[2]; NSCLC NCI-H23(I) CL1001
  -Log (GI50): 6.9
[2]; NSCLC NCI-H332M CL1017
  -Log (GI50): 6.3
[2]; NSCLC NCI-H460 CL1021
  -Log (GI50): 8.2
[2]; Ovarian IGROV1 CL6010
  -Log (GI50): 6.9
[2]; Ovarian OVCAR-3 CL6001
  -Log (GI50): 6.3
[2]; Ovarian OVCAR-4 CL6002
  -Log (GI50): 6.1
[2]; Ovarian OVCAR-5 CL6003
  -Log (GI50): 6.2
[2]; Ovarian OVCAR-8 CL6005
  -Log (GI50): 6.8
[2]; Ovarian SK-OV-3 CL6011
  -Log (GI50): 6.5
[2]; Prostate DU-145 CL11003
  -Log (GI50): 6.8
[2]; Prostate PC-3(I) CL11001
  -Log (GI50): 6.6
[2]; Renal 786-O CL9018
  -Log (GI50): 7.3
[2]; Renal A498 CL9013
  -Log (GI50): 6.9
[2]; Renal ACHN CL9023
  -Log (GI50): 7.2
[2]; Renal CAKI-1 CL9015
  -Log (GI50): 6.8
[2]; Renal RXF-393 CL9016
  -Log (GI50): 6.7
[2]; Renal SN12C CL9008
  -Log (GI50): 7.0
[2]; Renal TK10 CL9024
  -Log (GI50): 6.3
[2]; Renal UO-31 CL9004
  -Log (GI50): 6.1
